Source: patent US20260250325A1, “Antiviral Polypeptide Membrane Fusion Inhibitor, and Preparation Method and Application Thereof” (priority 2025, published 2026)
Where two headings read alike, the source gives them in different places. Where a SMILES comes first, the peptide text is derived from it. The star is where a group is joined. X1 = CC(C)CCCC(C)C1CCC2C3CC=C4CC(OC(=O)CCC(=O)*)CCC4(C)C3CCC12C

Legend:
[1] = test system: RSV A long virus strain; type: cell-based
In short: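 Plaque reduction in HEp-2 cells: virus (100 PFU/well) and serially diluted compound (8 concentrations) mixed 1 h, adsorbed 2 h, then overlaid with 0.8% CMC medium plus compound for 1 day at 37 °C. Spots counted after anti-RSV immunostaining; IC50 from normalized inhibition, CC50 from viability data.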

[2] = Cytotoxicity test in HEp-2 cells (CCK8 cell viability); type: cell-based; conditions: human
In short: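 Compound dilutions (final DMSO 0.5%) were applied for 1 day to HEp-2 cells plated at 30,000 per well the day before. CCK8 signal gave survival relative to cell and medium controls, and a four-parameter log(inhibitor)-response fit yielded CC50.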

[3] = RSV A long virus strain, HEp-2 cells, plaque reduction, 1 day, read-out: IC50
[4] = HEp-2 cells, CCK8, 1 day, read-out: CC50

| IC50 [1] [µM] | Structure (SMILES) | IC50 [1, 3] [µM] | CC50 at 1 day [2, 4] [µM] | CC50 at 1 day [2] [µM] |
| --- | --- | --- | --- | --- |
| – | CC[C@H](C)[C@H](NC(=O)[C@H](CCCCN)NC(=O)[C@H](CCCCN)NC(=O)[C@H](CC(N)=O)NC(=O)[C@@H](NC(=O)[C@H](CC(C)C)NC(=O)[C@H](CCC(=O)O)NC(=O)[C@H](CC(=O)O)NC(=O)[C@H](Cc1ccccc1)NC(C)=O)C(C)C)C(=O)N[C@@H](CCC(=O)O)C(=O)N[C@@H](CCCCN)C(=O)N[C@H](C(=O)N[C@@H](CCC(=O)O)C(=O)N[C@@H](CCC(=O)O)C(=O)N[C@H](C(=O)N[C@@H](CC(N)=O)C(=O)N[C@@H](CCCCN)C(=O)N[C@@H](CCCCN)C(=O)N[C@@H](CO)C(=O)N[C@@H](CC(C)C)C(=O)N[C@@H](CCCCN)C(=O)N[C@@H](CC(C)C)C(=O)N[C@@H](CC(C)C)C(=O)N[C@@H](CCC(=O)O)C(=O)N[C@@H](CO)C(=O)N[C@@H](CCC(=O)O)C(=O)N[C@@H](C)C(=O)N[C@@H](C)C(=O)N[C@@H](C)C(=O)N[C@@H](CCCCN)C(=O)N[C@@H](CCCCNC(=O)CCC(=O)OC1CCC2(C)C(=CCC3C2CCC2(C)C(C(C)CCCC(C)C)CCC32)C1)C(N)=O)C(C)C)[C@@H](C)CC (stereo partly drawn) [Compound 37] (Ac-FDELVNKKIEKIEEVNKKSLKLLESEAAAKK(X1)-NH2) | 5.23 | 4 | – |
| – | CC[C@H](C)[C@H](NC(=O)[C@H](Cc1ccccc1)NC(=O)[C@H](CCCCN)NC(=O)[C@H](CC(C)C)NC(=O)[C@H](CO)NC(=O)[C@H](CCC(N)=O)NC(=O)[C@H](CCC(=O)O)NC(=O)[C@@H](NC(=O)[C@H](CCCCN)NC(=O)[C@H](CCCCN)NC(=O)[C@H](CC(N)=O)NC(=O)[C@@H](NC(=O)[C@H](CCC(N)=O)NC(=O)[C@H](CCC(=O)O)NC(=O)[C@H](CC(C)C)NC(C)=O)C(C)C)[C@@H](C)CC)C(=O)N[C@@H](CCC(=O)O)C(=O)N[C@@H](CCCCN)C(=O)N[C@@H](CO)C(=O)N[C@@H](CC(=O)O)C(=O)N[C@@H](CCCCN)C(=O)N[C@@H](CC(C)C)C(=O)N[C@@H](CC(C)C)C(=O)N[C@@H](CCC(=O)O)C(=O)N[C@@H](CC(N)=O)C(=O)N[C@H](C(=O)N[C@@H](CC(N)=O)C(=O)N[C@@H](CCCCN)C(=O)NCC(=O)N[C@@H](CCCCN)C(=O)N[C@@H](CS)C(=O)N[C@@H](CCC(=O)O)C(=O)N[C@@H](C)C(=O)N[C@@H](C)C(=O)N[C@@H](C)C(=O)N[C@@H](CCCCN)C(=O)N[C@@H](CCCCNC(=O)CCC(=O)OC1CCC2(C)C(=CCC3C2CCC2(C)C(C(C)CCCC(C)C)CCC32)C1)C(N)=O)C(C)C (stereo partly drawn) [Positive polypeptide 5, reference compound] (Ac-LEQVNKKIEQSLKFIEKSDKLLENVNKGKCEAAAKK(X1)-NH2) | > 0.3 | 3.72 | – |
| – | CC[C@H](C)[C@H](NC(C)=O)C(=O)N[C@@H](CCC(=O)O)C(=O)N[C@@H](CCC(=O)O)C(=O)N[C@H](C(=O)N[C@@H](CC(N)=O)C(=O)N[C@@H](CCCCN)C(=O)N[C@@H](CCCCN)C(=O)N[C@H](C(=O)N[C@@H](CCC(=O)O)C(=O)N[C@@H](CCC(=O)O)C(=O)N[C@@H](CO)C(=O)N[C@@H](CC(C)C)C(=O)N[C@@H](CCCCN)C(=O)N[C@@H](CCCCN)C(=O)N[C@H](C(=O)N[C@@H](CCC(=O)O)C(=O)N[C@@H](CCC(=O)O)C(=O)N[C@@H](CO)C(=O)N[C@@H](CC(=O)O)C(=O)N[C@@H](CCCCN)C(=O)N[C@@H](CCCCN)C(=O)N[C@@H](CC(C)C)C(=O)N[C@@H](CCC(=O)O)C(=O)N[C@@H](CCC(=O)O)C(=O)N[C@H](C(=O)N[C@@H](CC(N)=O)C(=O)N[C@@H](CCCCN)C(=O)N[C@@H](CCCCN)C(=O)N[C@@H](CCCCN)C(=O)N[C@@H](CCC(=O)O)C(=O)N[C@@H](C)C(=O)N[C@@H](C)C(=O)N[C@@H](C)C(=O)N[C@@H](CCCCN)C(=O)N[C@@H](CCCCNC(=O)CCC(=O)OC1CCC2(C)C(=CCC3C2CCC2(C)C(C(C)CCCC(C)C)CCC32)C1)C(N)=O)C(C)C)[C@@H](C)CC)[C@@H](C)CC)C(C)C (stereo partly drawn) [Positive polypeptide 3, reference compound] (Ac-IEEVNKKIEESLKKIEESDKKLEEVNKKKEAAAKK(X1)-NH2) | > 0.3 | > 10 | – |
| – | CC[C@H](C)[C@H](NC(=O)[C@H](CCCCN)NC(=O)[C@H](CC(=O)O)NC(=O)[C@H](CO)NC(=O)[C@H](CCC(N)=O)NC(=O)[C@H](CCCCN)NC(=O)[C@H](CCCCN)NC(=O)[C@H](CC(C)C)NC(=O)[C@H](CO)NC(=O)[C@H](CCC(N)=O)NC(=O)[C@H](CCCCN)NC(=O)[C@H](CCC(=O)O)NC(=O)[C@H](CCC(=O)O)NC(=O)[C@H](CCC(=O)O)NC(=O)[C@@H](NC(=O)[C@H](CCCCN)NC(=O)[C@H](CCCCN)NC(=O)[C@H](CC(N)=O)NC(=O)[C@@H](NC(C)=O)C(C)C)[C@@H](C)CC)C(=O)N[C@@H](CCC(=O)O)C(=O)N[C@@H](CCC(=O)O)C(=O)N[C@@H](CO)C(=O)N[C@@H](CC(=O)O)C(=O)N[C@@H](CCC(=O)O)C(=O)N[C@@H](CC(N)=O)C(=O)N[C@@H](CCC(=O)O)C(=O)N[C@@H](C)C(=O)N[C@@H](C)C(=O)N[C@@H](C)C(=O)N[C@@H](CCCCN)C(=O)N[C@@H](CCCCNC(=O)CCC(=O)OC1CCC2(C)C(=CCC3C2CCC2(C)C(C(C)CCCC(C)C)CCC32)C1)C(N)=O (stereo partly drawn) [Compound 36] (Ac-VNKKIEEEKQSLKKQSDKIEESDENEAAAKK(X1)-NH2) | 6.82 | > 8 | – |
| > 8 | CC[C@H](C)[C@H](NC(=O)[C@H](CCCCN)NC(=O)[C@H](CCCCN)NC(=O)[C@H](CC(C)C)NC(=O)[C@@H](NC(=O)[C@H](CCC(=O)O)NC(=O)[C@H](CCC(=O)O)NC(=O)[C@@H](NC(=O)[C@H](CCCCN)NC(=O)[C@H](CCC(=O)O)NC(=O)[C@H](CC(N)=O)NC(=O)[C@@H](NC(=O)[C@H](CCC(=O)O)NC(=O)[C@H](CC(N)=O)NC(=O)[C@@H](NC(=O)[C@H](CCCCN)NC(=O)[C@H](CCC(N)=O)NC(=O)[C@H](CC(N)=O)NC(=O)[C@H](Cc1ccccc1)NC(=O)[C@H](CCC(=O)O)NC(=O)[C@H](CC(=O)O)NC(=O)[C@H](CC(=O)O)NC(C)=O)[C@@H](C)CC)C(C)C)[C@@H](C)CC)[C@@H](C)CC)C(=O)N[C@@H](CCC(=O)O)C(=O)N[C@@H](CCC(=O)O)C(=O)N[C@@H](CO)C(=O)N[C@@H](CC(=O)O)C(=O)N[C@@H](CCCNC(=N)N)C(=O)N[C@@H](CCCCN)C(=O)N[C@@H](CC(C)C)C(=O)N[C@@H](CCC(=O)O)C(=O)N[C@@H](CCC(=O)O)C(=O)N[C@@H](CO)C(=O)N[C@@H](CC(=O)O)C(=O)N[C@@H](CCCCN)C(=O)N[C@@H](CCCCN)C(=O)N[C@@H](C)C(N)=O [Compound 2] (Ac-DDEFNQKINEVNEKIEEILKKIEESDRKLEESDKKA-NH2) | – | – | > 8 |
| – | CC[C@H](C)[C@H](NC(=O)[C@H](CCCCN)NC(=O)[C@H](CCCCN)NC(=O)[C@H](CC(N)=O)NC(=O)[C@@H](NC(=O)[C@H](CCC(N)=O)NC(=O)[C@H](CCC(=O)O)NC(=O)[C@H](CC(C)C)NC(=O)[C@H](CO)NC(C)=O)C(C)C)C(=O)N[C@@H](CC(N)=O)C(=O)N[C@@H](CCC(N)=O)C(=O)N[C@@H](CO)C(=O)N[C@@H](CC(C)C)C(=O)N[C@@H](CCCCN)C(=O)N[C@H](C(=O)N[C@@H](CC(N)=O)C(=O)N[C@@H](CCCCN)C(=O)N[C@@H](CCCCN)C(=O)N[C@@H](CO)C(=O)N[C@@H](CC(=O)O)C(=O)N[C@@H](CCCCN)C(=O)N[C@@H](CC(C)C)C(=O)N[C@@H](CC(C)C)C(=O)N[C@@H](CCC(=O)O)C(=O)N[C@@H](CC(N)=O)C(=O)N[C@@H](CCC(=O)O)C(=O)N[C@@H](C)C(=O)N[C@@H](C)C(=O)N[C@@H](C)C(=O)N[C@@H](CCCCN)C(=O)N[C@@H](CCCCNC(=O)CCC(=O)OC1CCC2(C)C(=CCC3C2CCC2(C)C(C(C)CCCC(C)C)CCC32)C1)C(N)=O)C(C)C (stereo partly drawn) [Compound 33] (Ac-SLEQVNKKINQSLKVNKKSDKLLENEAAAKK(X1)-NH2) | 5.04 | > 8 | – |
